Numbered stars: 1 amine (or outer) side, 2 acyl side, 3 side chain; on linkers, the order of the positions; unused ones are H or OH. Bridge positions count the residues as written; N and C are the ends. Ends that are not written are not given here. Peptide text beside a SMILES is read from it. Suc = O=C(CCC(=O)[*:2])[*:1]
Biological target: SARS-CoV-2 spike protein RBD (Severe acute respiratory syndrome coronavirus 2, UniProt P0DTC2)
Experiment: biochemical
Assay type: binding
Details: for kon: read-out: Ka; for Binding (Yes/No): pH 7.4

| Compound | kon [M⁻¹ s⁻¹] | also measured |
| --- | --- | --- |
| CSCC[C@@H]1NC(=O)[C@H](CC(C)C)NC(=O)[C@H](CCCCN)NC(=O)[C@H](CCC(=O)O)NC(=O)[C@H](Cc2ccccc2)NC(=O)[C@H](CC(C)C)NC(=O)[C@H](CC(=O)O)NC(=O)[C@H](CCC(=O)O)NC(=O)[C@H](C)NC(=O)[C@H](CCC(=O)O)NC(=O)[C@H](Cc2c[nH]cn2)NC(=O)[C@H](CC(N)=O)NC(=O)[C@H](Cc2ccccc2)NC(=O)[C@H](CCCCN)NC1=O [Peptide 3] (cyclo(AEDLFEKLMKFNHE)) | 15.1 ± 3.8 | – |
| CSCC[C@H](NC(=O)[C@H](CC(C)C)NC(=O)[C@H](CCCCN)NC(=O)[C@H](CCC(=O)O)NC(=O)[C@H](Cc1ccccc1)NC(=O)[C@H](CC(C)C)NC(=O)[C@H](CC(=O)O)NC(=O)[C@H](CCC(=O)O)NC(=O)[C@H](C)NC(=O)[C@H](CCC(=O)O)NC(=O)[C@H](Cc1c[nH]cn1)NC(=O)[C@H](CC(N)=O)NC(=O)[C@H](Cc1ccccc1)NC(=O)[C@H](CCCCN)NC(=O)CCC(=O)O)C(N)=O [Peptide 4] (Suc-KFNHEAEDLFEKLM-NH2) | 13.9 ± 3.6 | – |
| CSCC[C@@H]1NC(=O)[C@H](CC(C)C)NC(=O)[C@H](CCCCN)NC(=O)[C@H](CCC(=O)O)NC(=O)[C@H](Cc2ccccc2)NC(=O)[C@H](CC(C)C)NC(=O)[C@H](CC(=O)O)NC(=O)[C@H](CCC(=O)O)NC(=O)[C@H](C)NC(=O)[C@H](CCC(=O)O)NC(=O)[C@H](Cc2c[nH]cn2)NC(=O)[C@H](CC(N)=O)NC(=O)[C@H](Cc2ccccc2)NC(=O)[C@H](CCCCN)NC(=O)[C@@H](N)CSSC[C@@H](C(N)=O)NC1=O [Peptide 6] (H-CKFNHEAEDLFEKLMC-NH2; disulfide 1-16) | 6.84 ± 2.46 | – |
| CSCC[C@H](NC(=O)[C@H](CC(=O)O)NC(=O)[C@H](CCC(=O)O)NC(=O)[C@H](Cc1ccccc1)NC(=O)[C@H](CC(C)C)NC(=O)[C@H](CCC(=O)O)NC(=O)[C@H](CCC(=O)O)NC(=O)[C@H](Cc1ccccc1)NC(=O)[C@H](CC(C)C)NC(=O)[C@H](CCCCN)NC(=O)[C@H](CCC(=O)O)NC(=O)[C@H](Cc1ccccc1)NC(=O)[C@H](CC(C)C)NC(=O)[C@H](CC(=O)O)NC(=O)[C@H](CCC(=O)O)NC(=O)[C@H](C)NC(=O)[C@H](CCC(=O)O)NC(=O)[C@H](Cc1c[nH]cn1)NC(=O)[C@H](CC(N)=O)NC(=O)[C@H](Cc1ccccc1)NC(=O)[C@H](CCCCN)NC(=O)CCC(=O)O)C(N)=O [Peptide 7] (Suc-KFNHEAEDLFEKLFEELFEDM-NH2) | 4.29 ± 0.52 | Kd: (2.09 ± 0.39) × 10^−2 M^−1; Binding (Yes/No): Yes |
| CC(C)C[C@H](NC(=O)CCC(=O)O)C(=O)N[C@@H](CC(C)C)C(=O)N[C@@H](CCC(=O)O)C(=O)N[C@@H](CCCCN)C(=O)N[C@@H](CC(C)C)C(=O)N[C@@H](CC(C)C)C(=O)N[C@@H](CCC(=O)O)C(=O)N[C@@H](Cc1c[nH]c2ccccc12)C(=O)N[C@@H](CC(C)C)C(=O)N[C@@H](CCC(=O)O)C(N)=O [Peptide 9] (Suc-LLEKLLEWLE-NH2) | 5.83 ± 2.92 | Kd: (1.39 ± 0.16) × 10^−2 M^−1; Binding (Yes/No): Yes |
| Ac-KFNHEAEDLFEKLM [Peptide 5] | 0.64 ± 0.09 | – |
| GLFKEALEELWEA-NH2 [Peptide 8] | 5.39 ± 1.31 | – |
| KFNDEAEDLFKLFEELFEDM-NH2 [Peptide 10] | 6.81 ± 2.41 | – |
| KFNHEAEDLFEKLM [Peptide 1] | 4.62 ± 0.45 | – |
| KFNHEAEDLFEKLM-NH2 [Peptide 2] | 1.15 ± 0.08 | – |
| MIEEQAKFLDKFNHEAEDLFK-NH2 [Peptide 11] | – | binding to the spike protein RBD at higher concentrations: bound |

Reference: publication PMC9000588 (Molecules, 2022)
